{"source": "patent US8435576B2", "about": "“Use of cocoa polyphenols for treating a prostate hyperplasia, a specific cocoa extract and applications” (Barry Callebaut AG, priority 2005, dated 2013)", "format_in_all_cases": "in vivo, Wistar rats", "key": {"[1]": {"test": "Body weight during 14-day oral treatment before heat stroke", "procedure": "Eight male rats of Wistar/Han IGS strain (Charles River Laboratories, 69-St-Germain sur l'Arbresle—France) weighing 300 to 320 g are used. On receipt, the rats are housed, four to a cage, in 48×27×20 cm polycarbonate cages (U.A.R., 91-Epinay-Sur-Orge, France) in a controlled environment (50±5% humidity; temperature 22±1° C.; lighting from 20:00 h to 08:00 h, i.e. an inverted lightness/darkness cycle: 12 h/12 h).\nThe rats are weighed each day for the fourteen days of the treatment in order to determine their body weight change."}, "leukocyte free radicals": {"test_system": "leukocyte free radicals", "test": "Free radicals in the blood after heat stroke (pholasine chemiluminescence)", "conditions": "after heat stroke 40° C., 120 min; 14 days oral CPE1 22.9, CPE2 24.3, vitamin E 200 mg/kg/day", "procedure": "(§1) After each daily administration of the product, the rats have free access to standard food granules.\n(§2) On the 16th day, after fasting over night, the conscious rats of the various groups, with the exception of those of the vehicle group, are exposed to a heat stroke by placing them in a temperature-controlled chamber at 40° C. with a relative humidity of 50% for 120 minutes. The rats expressed their normal heat-regulating behavior. Immediately after the heat stroke, the rats with a rectal temperature of between 41.5° C. and 42° C. are included in the study. The rats returned to their cage at 22° C.\nOn the 16th day, 500 μl of blood samples were collected from the tail vein of 12 rats of each group, into tubes containing heparin to check the increase in free radicals after exposure to the heat stroke. On the basis of the chemiluminescence of pholasine, a photo-protein from the marine mollusc Pholas dactylus, the production of leukocyte free radicals was measured using a kit (Knight Scientific, Cell Activation Test Kits for Whole Blood with Adjuvant-K) by activation of the NADPH oxydase complex in diluted blood (In CytoTox laboratory, Nancy, France)."}, "[2]": {"test_system": "cognitive performances after heat stroke", "test": "Light extinction test after heat stroke", "conditions": "day 18, after heat stroke", "procedure": "as §1, §2\nThree days after exposure to the heat stroke, on day 18 (D18), the rats are tested for the preventive antioxidant effects of the two CPEs on the learning performances, by using the light extinction test. The experimental device consists of a brightly lit cage (50×40×37 cm). The level of lighting in the test cage is 1200 lux.\nDuring the test session, the rats are placed individually in the cage for 20 minutes to learn how to control the light environment."}, "[3]": {"test_system": "cognitive performances after heat stroke", "test": "Morris water labyrinth test after heat stroke", "procedure": "as §1, §2\nThe Morris water labyrinth (1984) makes it possible to test the capacity for spatial orientation and the processes of learning and memorization. On the 20th and 21st days (D20 and D21), the rats are tested in the water labyrinth device to evaluate the spatial learning performances and their long-term memory. The experimental procedure consists in training rats, on the 20th day, to find a hidden platform (10 mm below the surface of the water) at a fixed point in the water tank (150 cm in diameter) in a series of five tests starting from the same starting point.\nDuring the first test, the platform is placed against the wall of the tank. During the second test, the platform is placed 5 cm from the wall of the tank to allow the rats to find the platform easily. During the following three tests, the platform is placed 10 cm from the wall of the tank. Each test is followed by a 30-second rest period on the platform.\nOn the 21st day, the platform is placed at a distance from the wall of the tank in the same place as during the session on the 20th day and the long-term memory of the rats is tested in a single test.\nThe variable recorded in the water tank is the latency time required to get out of the water and reach the platform serving as a refuge arranged in the basin."}}}
{"smiles": "Cc1c(C)c2c(c(C)c1O)CC[C@@](C)(CCC[C@H](C)CCC[C@H](C)CCCC(C)C)O2", "note": "[Vitamin E, α-tocopherol]", "values": [{"measurement": "Body weight", "setting": "[1]; Day 1, oral daily CPE1 22.9, CPE2 24.3, vitamin E 200 mg/kg", "result": "320.9 ± 15.4", "unit": "g"}, {"measurement": "Body weight", "setting": "[1]; Day 3", "result": "328.9 ± 15.8", "unit": "g"}, {"measurement": "Body weight", "setting": "[1]; Day 4", "result": "330.6 ± 15.7", "unit": "g"}, {"measurement": "Body weight", "setting": "[1]; Day 5", "result": "333.9 ± 16.5", "unit": "g"}, {"measurement": "Body weight", "setting": "[1]; Day 6", "result": "336.6 ± 15.9", "unit": "g"}, {"measurement": "Body weight", "setting": "[1]; Day 7", "result": "339.4 ± 17.3", "unit": "g"}, {"measurement": "Body weight", "setting": "[1]; Day 8", "result": "342.1 ± 17.2", "unit": "g"}, {"measurement": "Body weight", "setting": "[1]; Day 11", "result": "351.6 ± 18.0", "unit": "g"}, {"measurement": "Body weight", "setting": "[1]; Day 12", "result": "354.6 ± 18.8", "unit": "g"}, {"measurement": "Free radical content in the plasma on the 16th day (Mean ± SEM)", "setting": "leukocyte free radicals", "result": "311.15 ± 20.56", "unit": "mV"}, {"measurement": "Discrimination of the levers", "setting": "[2]", "result": "pressed the active lever more than the inactive lever"}, {"measurement": "Number of active lever presses (ALP) (mean ± SEM)", "setting": "[2]", "result": "27.28 ± 3.54"}, {"measurement": "Number of inactive lever presses (ILP) (mean ± SEM)", "setting": "[2]", "result": "17.60 ± 2.47"}, {"measurement": "Total number of lever presses (Mean ± SEM)", "setting": "[2]; n = 16/group", "result": "42.38 ± 5.76"}, {"measurement": "Latency for reaching the platform (Mean ± SEM)", "setting": "[3]; Day 20, Test 1", "result": "51.75 ± 6.45", "unit": "s"}, {"measurement": "Latency for reaching the platform (Mean ± SEM)", "setting": "[3]; Day 20, Test 2", "result": "25.38 ± 4.94", "unit": "s"}, {"measurement": "Latency for reaching the platform (Mean ± SEM)", "setting": "[3]; Day 20, Test 3", "result": "26.44 ± 5.20", "unit": "s"}, {"measurement": "Latency for reaching the platform (Mean ± SEM)", "setting": "[3]; Day 20, Test 4", "result": "17.75 ± 2.44", "unit": "s"}, {"measurement": "Latency for reaching the platform (Mean ± SEM)", "setting": "[3]; Day 20, Test 5", "result": "13.56 ± 1.37", "unit": "s"}, {"measurement": "Latency for reaching the platform (Mean ± SEM)", "setting": "[3]; Day 21, Test 6", "result": "14.69 ± 2.22", "unit": "s"}]}
